# Data as given in patent US9533968B2, “N-thio-anthranilamide compounds and their use as pesticides” (BASF SE, priority 2012, dated 2017).
# Assays:
# Format in all cases: in vivo
# [1] = system: Silverleaf Whitefly (Bemisia argentifolii); test: Silverleaf whitefly test, sprayed cotton plants; conditions: at 100 ppm; silverleaf whitefly adults; 3 days after treatment
# Source text: (§1) The active compounds are formulated in cyclohexanone as a 10,000 ppm solution supplied in tubes. The tubes are inserted into an automated electrostatic sprayer equipped with an atomizing nozzle and they serve as stock solutions for which lower dilutions are made in 50% acetone:50% water (v/v). A nonionic surfactant (Kinetic®) is included in the solution at a volume of 0.01% (v/v).
# Cotton plants at the cotyledon stage (one plant per pot) are sprayed by an automated electrostatic plant sprayer equipped with an atomizing spray nozzle. The plants are dried in the sprayer fume hood and then removed from the sprayer. Each pot is placed into a plastic cup and about 10 to 12 whitefly adults (approximately 3-5 days old) are introduced. The insects are collected using an aspirator and a nontoxic Tygon® tubing connected to a barrier pipette tip. The tip, containing the collected insects, is then gently inserted into the soil containing the treated plant, allowing insects to crawl out of the tip to reach the foliage for feeding. Cups are covered with a reusable screened lid. Test plants are maintained in a growth room at about 25° C. and about 20-40% relative humidity for 3 days, avoiding direct exposure to fluorescent light (24 hour photoperiod) to prevent trapping of heat inside the cup. Mortality is assessed 3 days after treatment, compared to untreated control plants.
# [2] = system: boll weevil (Anthonomus grandis); test: Boll weevil test, microtiter plates with insect diet and eggs; conditions: 120 h, read-out: mortality in comparison with untreated controls
# Protocol: For evaluating control of boll weevil (Anthonomus grandis) the test unit consists of 24-well-microtiter plates containing an insect diet and 20-30 A. grandis eggs.
# (§2) The compounds are formulated using a solution containing 75% v/v water and 25% v/v DMSO. Different concentrations of formulated compounds are sprayed onto the insect diet at 20 μl, using a custom built micro atomizer, at two replications.
# After application, microtiter plates are incubated at about 23±1° C. and about 50±5% relative humidity for 5 days. Egg and larval mortality is then visually assessed.
# [3] = system: Orchid Thrips (Dichromothrips Corbetti); test: Orchid thrips test, floral-immersion technique; conditions: 96 h, read-out: mortality in comparison with untreated controls
# Protocol: Dichromothrips corbetti adults used for bioassay are obtained from a colony maintained continuously under laboratory conditions. For testing purposes, the test compound is diluted to a concentration of 300 ppm (wt compound: vol diluent) in a 1:1 mixture of acetone:water (vol:vol), plus 0.01% vol/vol Kinetic® surfactant.
# Thrips potency of each compound is evaluated by using a floral-immersion technique. Plastic petri dishes are used as test arenas. All petals of individual, intact orchid flowers are dipped into treatment solution and allowed to dry. Treated flowers are placed into individual petri dishes along with 10-15 adult thrips. The petri dishes are then covered with lids. All test arenas are held under continuous light and a temperature of about 28° C. for duration of the assay. After 4 days, the numbers of live thrips are counted on each flower, and along inner walls of each petri dish. The level of thrips mortality is extrapolated from pre-treatment thrips numbers.
# [4] = system: Mediterranean fruitfly (Ceratitis capitata); test: Mediterranean fruitfly test, microtiter plates with insect diet and eggs; conditions: 120 h, read-out: mortality in comparison with untreated controls
# Protocol: For evaluating control of Mediterranean fruitfly (Ceratitis capitata) the test unit consists of microtiter plates containing an insect diet and 50-80 C. capitata eggs.
# The compounds are formulated using a solution containing 75% v/v water and 25% v/v DMSO. Different concentrations of formulated compounds are sprayed onto the insect diet at 5 μl, using a custom built micro atomizer, at two replications.
# After application, microtiter plates are incubated at about 28±1° C. and about 80±5% relative humidity for 5 days. Egg and larval mortality is then visually assessed.
# [5] = system: Diamond Back Moth (Plutella Xylostella); test: Diamond back moth test, cabbage leaf dip; conditions: foliar, 72 h, read-out: mortality in comparison with untreated controls
# Protocol: The active compound is dissolved at the desired concentration in a mixture of 1:1 (vol/vol) distilled water:aceteone. Surfactant (Alkamuls® EL 620) is added at a rate of 0.1% (vol/vol). The test solution is prepared at the day of use.
# Leaves of cabbage are dipped in test solution and air-dried. Treated leaves are placed in petri dishes lined with moist filter paper and inoculated with ten 3rd instar larvae. Mortality is recorded 72 hours after treatment. Feeding damages are also recorded using a scale of 0-100%.
# [6] = system: Southern Armyworm (Spodoptera eridania); test: Southern armyworm test, sprayed lima bean plants; conditions: 96 h, read-out: mortality in comparison with untreated controls
# Protocol: as §1
# Lima bean plants (variety Sieva) are grown 2 plants to a pot and selected for treatment at the 1st true leaf stage. Test solutions are sprayed onto the foliage by an automated electrostatic plant sprayer equipped with an atomizing spray nozzle. The plants are dried in the sprayer fume hood and then removed from the sprayer. Each pot is placed into perforated plastic bags with a zip closure. About 10 to 11 armyworm larvae are placed into the bag and the bags zipped closed. Test plants are maintained in a growth room at about 25° C. and about 20-40% relative humidity for 4 days, avoiding direct exposure to fluorescent light (24 hour photoperiod) to prevent trapping of heat inside the bags. Mortality and reduced feeding are assessed 4 days after treatment, compared to untreated control plants.
# [7] = system: Tobacco Budworm (Heliothis virescens); test: Tobacco budworm test, microtiter plates with insect diet and eggs; conditions: 120 h, read-out: mortality in comparison with untreated controls
# Protocol: as §2, with “The test unit consisted of 96-well-microtiter plates containing an insect diet and 15-25 H. virescens eggs. The” for “The”, “were” for “are”, “10” for “20”
# After application, microtiter plates were incubated at about 28±1° C. and about 80±5% relative humidity for 5 days. Egg and larval mortality was then visually assessed.
# [8] = system: Colorado Potato Beetle (Leptinotarsa decemlineata); test: Colorado potato beetle test, sprayed eggplant foliage; conditions: foliar, 96 h, read-out: mortality in comparison with untreated controls
# Protocol: as §1
# Eggplants are grown 2 plants to a pot and are selected for treatment at the 1st true leaf stage. Test solutions are sprayed onto the foliage by an automated electrostatic plant sprayer equipped with an atomizing spray nozzle. The plants are dried in the sprayer fume hood and then removed from the sprayer. The treated foliage is then cut and removed from the pot and placed in a Petri dish lined with moistened filter pa-per. Five beetle larvae are introduced into each Petri dish and the dish is covered by a Petri dish lid. Petri dishes are maintained in a growth room at about 25° C. and about 20-40% relative humidity for 4 days, avoiding direct exposure to fluorescent light (24 hour photoperiod) to prevent trapping of heat inside the dishes. Mortality and reduced feeding are assessed 4 days after treatment, compared to untreated control plants.
# [9] = system: Rice Green Leafhopper (Nephotettix virescens); test: Rice green leafhopper test, sprayed rice seedlings; conditions: 72 h, read-out: mortality in comparison with untreated controls
# Protocol: Rice seedlings are cleaned and washed 24 hours before spraying. The active compounds are formulated in 50:50 acetone:water (vol:vol), and 0.1% vol/vol surfactant (EL 620) is added. Potted rice seedlings are sprayed with 5 ml test solution, air dried, placed in cages and inoculated with 10 adults. Treated rice plants are kept at about 28-29° C. and relative humidity of about 50-60%. Percent mortality is recorded after 72 hours.
# [10] = system: vetch aphid (Megoura viciae); test: Vetch aphid test, broad bean leaf disks in microtiter plates; conditions: foliar, 120 h, read-out: mortality in comparison with untreated controls
# Protocol: For evaluating control of vetch aphid (Megoura viciae) through contact or systemic means the test unit consists of 24-well-microtiter plates containing broad bean leaf disks.
# The compounds are formulated using a solution containing 75% v/v water and 25% v/v DMSO. Different concentrations of formulated compounds are sprayed onto the leaf disks at 2.5 μl, using a custom built micro atomizer, at two replications.
# After application, the leaf disks are air-dried and 5-8 adult aphids placed on the leaf disks inside the microtiter plate wells. The aphids are then allowed to suck on the treated leaf disks and incubated at about 23±1° C. and about 50±5% relative humidity for 5 days. Aphid mortality and fecundity is then visually assessed.
# [11] = system: Cowpea Aphid (Aphis Craccivora); test: Cowpea aphid test, sprayed potted cowpea plants; conditions: read-out: mortality in comparison with untreated controls
# Protocol: If not otherwise specified the test solutions are prepared as follow:
# The active compound is dissolved at the desired concentration in a mixture of 1:1 (vol:vol) distilled water:aceton. The test solution is prepared at the day of use and in general at concentrations of […].
# Potted cowpea plants colonized with approximately 100-150 aphids of various stages are sprayed after the pest population has been recorded. Population reduction is assessed after 24, 72, and 120 hours.
Structure (SMILES),mortality in comparison with untreated controls [1],mortality at 2500 ppm [2] [%],mortality at 500 ppm [3] [%],mortality at 2500 ppm [4] [%],mortality at 500 ppm [5] [%],mortality at 1 ppm [6] [%],mortality at 2500 ppm [7] [%],mortality at 1 ppm [8] [%],mortality at 500 ppm [9] [%],mortality at 2500 ppm [10] [%],mortality at 500 ppm [11] [%]
CC(C)[S+]([O-])NC(=O)c1cc(Br)cc(Br)c1NC(=O)c1cc(C(F)(F)F)nn1-c1ncccc1Cl (stereo not drawn) [Compound 1-7],over 75%,,,,,,,,,,
"CSNC(=O)c1cc(Cl)cc(C)c1NC(=O)c1cc(C(F)(F)F)nn1-c1ncccc1Cl [Compound 1-22, N-[4-chloro-2-methyl-6-(methylsulfanylcarbamoyl)phenyl]-2-(3-chloro-2-pyridyl)-5-(trifluoromethyl)pyrazole-3-carboxamide]",,> 75,> 75,> 75,> 75,> 75,> 75,> 75,> 75,> 75,
"Cc1cc(Cl)cc(C(=O)N[S+](C)[O-])c1NC(=O)c1cc(C(F)(F)F)nn1-c1ncccc1Cl (stereo not drawn) [Compound 1-28, N-[4-chloro-2-methyl-6-(methylsulfinylcarbamoyl)phenyl]-2-(3-chloro-2-pyridyl)-5-(trifluoromethyl)pyrazole-3-carboxamide]",,> 75,> 75,> 75,> 75,,> 75,,> 75,> 75,> 75
